Measurements reported in patent US20240383891A1, “BENZIMIDAZOLE AND RELATED ANALOGS FOR INHIBITING YAP/TAZ-TEAD” (SpringWorks Therapeutics, Inc., priority 2023, published 2024).
pEC50, pIC50: −log10 of the molar value.

How the values were obtained:
Assay type in all cases: cell-based
[1] = tested on: YAP/TAZ-TEAD transcription; experiment: reporter gene assay for measuring the inhibition of YAP/TAZ-TEAD transcription (TEAD-responsive element luciferase reporter in Hek293T cells); details: Homo sapiens, HEK-293T; Hek293T cells transiently transfected with TEAD-responsive element luciferase reporter, 24 hours incubation
Experimental: Example 21: Activity of compounds of the disclosure in a reporter gene assay for measuring the inhibition of YAP/TAZ-TEAD transcription Hek293T cells are cultured in DMEM supplemented with 10% fetal bovine serum, Sodium pyruvate, Sodium bicarbonate, L-glutamine. The cells are harvested and transiently transfected with TEAD-responsive element luciferase reporter. Transfected cells are plated in 384-well plate containing pre-diluted compounds. After 24 hours incubation at 37° C./5% CO2, assay plates were cooled to room temperature and levelled to an equal volume per well, prior to the addition of 25 uL luciferase substrate SteadyLite (Perkin Elmer)/well. The plate was shaken for 10 min at 600 rpm, centrifuged for 1 min at 500 rpm and measured with an Envision reader (PerkinElmer). The amount of relative light units produced by the TEAD reporter is used to calculate the percentage of inhibition. The percent of reporter inhibition was calculated in the presence of a positive control inhibitor (100% inhibition) versus a condition with the presence of the vehicle basal activity of the reporter (0% inhibition). The ability of a test compound to inhibit this activity was determined as: Percentage inhibition=[[…]((RLU determined in the presence of vehicle—RLU determined for sample with test compound present) divided by (RLU determined in the presence of vehicle—RLU determined for sample with positive control inhibitor))] *100.
The activities of example compounds tested are depicted in Table 3. The activity ranges A, B and C refer to IC50 values in the reporter gene assay as follows: “A”: IC50<1 μM; “B”: 1 μM≤IC50 10 μM and “C”: IC50>10 μM; NT=not tested.

[2] = tested on: NCI-H226; experiment: mesothelioma cell line proliferation assay, NCI-H226; details: Homo sapiens, 144 h; NCI-H226 mesothelioma cells, 6 days incubation, ATPlite cell viability
Experimental: (§1) Mesothelioma cell lines, NCI-H226 and NCI-H2052 (both sourced from the ATCC cell culture collection) are plated in 96-well plates (Corning® 96 Well White Polystyrene Microplate clear flat bottom, white polystyrene (TC-Treated)), at 1500 cells/well in full medium (RPMI 1640 ATCC modification with L-glutamine, HEPES, Phenol Red, Sodium Pyruvate, High glucose, Low sodium bicarbonate and 10% fetal bovine serum). Cells are incubated overnight at 37° C. in an incubator with 5% CO2. Then compounds, dissolved in DMSO, are added in dose-response. Cells are incubated with compound dilutions for another 6 days at 37° C. in an incubator with 5% CO2. Cell viability is quantitated using the ATPlite kit (Perkin-Elmer) and the luminescence is read-out using an Envision instrument (Perkin-Elmer). The amount of relative light units produced using the ATPlite kit is used to calculate percent of inhibition. The activities of some example compounds are depicted in Table 4. The activity ranges A, B and C refer to EC50 values in the mesothelioma cell line proliferation assay as described as follows: “A”: EC50<1 μM; “B”: 1 μM s […] and “C”: EC50>10 μM; NT: not tested.

[3] = tested on: NCI-H2052; experiment: mesothelioma cell line proliferation assay, NCI-H2052; details: Homo sapiens, 144 h; NCI-H2052 mesothelioma cells, 6 days incubation, ATPlite cell viability
Experimental: as §1

Compound | pIC50 [1] | pEC50 [2] | pEC50 [3]
O=c1[nH]nc(-c2nc(-c3ccc(C(F)(F)F)cc3)c3ccccn23)[nH]1 [Cpd. No. 029, 5-(1-(4-(trifluoromethyl)phenyl)imidazo[1,5-a]pyridin-3-yl)-2,4-dihydro-3H-1,2,4-triazol-3-one] | 5.00 to 6.00 | – | –
O=C(O)CNc1nc(-c2ccc(C(F)(F)F)cc2)c2ccccn12 [Cpd. No. 021, (1-(4-(trifluoromethyl)phenyl)imidazo[1,5-a]pyridin-3-yl)glycine] | < 5.00 | – | –
O=C(O)/C=C/c1nc(-c2ccc(C(F)(F)F)cc2)c2ccc(C(F)(F)F)cn12 [Cpd. No. 022, (E)-3-(6-(trifluoromethyl)-1-(4-(trifluoromethyl)phenyl)imidazo[1,5-a]pyridin-3-yl)acrylic acid] | > 6.00 | > 6.00 | > 6.00
C=CC(=O)NCc1nc(-c2ccc(C(F)(F)F)cc2)n2cc(C(F)(F)F)ccc12 [Cpd. No. 009, N-((6-(trifluoromethyl)-3-(4-(trifluoromethyl)phenyl)imidazo[1,5-a]pyridin-1-yl)methyl)acrylamide] | > 6.00 | > 6.00 | > 6.00
CS(=O)(=O)NCc1nc(-c2ccc(C(F)(F)F)cc2)n2ccccc12 [Cpd. No. 006, N-((3-(4-(trifluoromethyl)phenyl)imidazo[1,5-a]pyridin-1-yl)methyl)methanesulfonamide] | 5.00 to 6.00 | – | –
O=C(O)[C@H]1C[C@@H](c2nc(-c3ccc(C(F)(F)F)cc3)c3ccccn32)C1 [Cpd. No. 019, cis-3-(1-(4-(trifluoromethyl)phenyl)imidazo[1,5-a]pyridin-3-yl)cyclobutane-1-carboxylic acid] | < 5.00 | – | –
O=c1[nH]c(-c2nc(-c3ccc(C(F)(F)F)cc3)c3ccccn23)no1 [Cpd. No. 028, 3-(1-(4-(trifluoromethyl)phenyl)imidazo[1,5-a]pyridin-3-yl)-1,2,4-oxadiazol-5(4H)-one] | > 6.00 | – | –
O=c1[nH]nc(-c2nc(-c3ccc(C(F)(F)F)cc3)c3ccccn23)o1 [Cpd. No. 025, 5-(1-(4-(trifluoromethyl)phenyl)imidazo[1,5-a]pyridin-3-yl)-1,3,4-oxadiazol-2(3H)-one] | > 6.00 | > 6.00 | > 6.00
O=C(O)[C@@H]1C[C@H]1c1nc(-c2ccc(C(F)(F)F)cc2)c2ccccn12 (relative stereo) [Cpd. No. 012, trans-2-(1-(4-(trifluoromethyl)phenyl)imidazo[1,5-a]pyridin-3-yl)cyclopropane-1-carboxylic acid] | > 6.00 | – | –
O=C(O)/C=C/c1nc(-c2ccc(C(F)(F)F)cc2)c2ccccn12 [Cpd. No. 008, (E)-3-(1-(4-(trifluoromethyl)phenyl)imidazo[1,5-a]pyridin-3-yl)acrylic acid] | > 6.00 | > 6.00 | > 6.00
O=C(O)[C@H]1C[C@H]1c1nc(-c2ccc(C(F)(F)F)cc2)c2ccccn12 (racemic) [Cpd. No. 018, cis-2-(1-(4-(trifluoromethyl)phenyl)imidazo[1,5-a]pyridin-3-yl)cyclopropane-1-carboxylic acid] | < 5.00 | – | –
O=C(O)Cc1nc(-c2ccc(C(F)(F)F)cc2)c2ccccn12 [Cpd. No. 015, 2-(1-(4-(trifluoromethyl)phenyl)imidazo[1,5-a]pyridin-3-yl)acetic acid] | < 5.00 | – | –
CN(CC(=O)O)c1nc(-c2ccc(C(F)(F)F)cc2)c2ccccn12 [Cpd. No. 024, N-methyl-N-(1-(4-(trifluoromethyl)phenyl)imidazo[1,5-a]pyridin-3-yl)glycine] | 5.00 to 6.00 | – | –
O=C(O)C1CCN1c1nc(-c2ccc(C(F)(F)F)cc2)c2ccccn12 (stereo not shown) [Cpd. No. 016, 1-(1-(4-(trifluoromethyl)phenyl)imidazo[1,5-a]pyridin-3-yl)azetidine-2-carboxylic acid] | < 5.00 | – | –
C=CC(=O)NCc1nc(-c2ccc(C(F)(F)F)cc2)n2ccccc12 [Cpd. No. 001, N-((3-(4-(trifluoromethyl)phenyl)imidazo[1,5-a]pyridin-1-yl)methyl)acrylamide] | > 6.00 | > 6.00 | > 6.00
CCC(=O)NCc1nc(-c2ccc(C(F)(F)F)cc2)n2ccccc12 [Cpd. No. 005, N-((3-(4-(trifluoromethyl)phenyl)imidazo[1,5-a]pyridin-1-yl)methyl)propionamide] | < 5.00 | – | –
CS(=O)(=O)NCc1nc(-c2ccc(C(F)(F)F)cc2)n2cc(C(F)(F)F)ccc12 [Cpd. No. 011, N-((6-(trifluoromethyl)-3-(4-(trifluoromethyl)phenyl)imidazo[1,5-a]pyridin-1-yl)methyl)methanesulfonamide] | < 5.00 | – | –
CCC(=O)NCc1nc(-c2ccc(C(F)(F)F)cc2)c2ccccn12 [Cpd. No. 003, N-((1-(4-(trifluoromethyl)phenyl)imidazo[1,5-a]pyridin-3-yl)methyl)propionamide] | < 5.00 | – | –
CS(=O)(=O)NCc1nc(-c2ccc(C(F)(F)F)cc2)c2ccccn12 [Cpd. No. 004, N-((1-(4-(trifluoromethyl)phenyl)imidazo[1,5-a]pyridin-3-yl)methyl)methanesulfonamide] | < 5.00 | – | –
O=C(O)[C@H]1C[C@H](c2nc(-c3ccc(C(F)(F)F)cc3)c3ccccn32)C1 [Cpd. No. 020, trans-3-(1-(4-(trifluoromethyl)phenyl)imidazo[1,5-a]pyridin-3-yl)cyclobutane-1-carboxylic acid] | > 6.00 | – | –
O=Cc1ccc(-c2nc(-c3ccc(C(F)(F)F)cc3)c3ccccn23)cc1O [Cpd. No. 013, 2-hydroxy-4-(1-(4-(trifluoromethyl)phenyl)imidazo[1,5-a]pyridin-3-yl)benzaldehyde] | > 6.00 | – | –
O=C(O)C1CN(c2nc(-c3ccc(C(F)(F)F)cc3)c3ccccn23)C1 [Cpd. No. 017, 1-(1-(4-(trifluoromethyl)phenyl)imidazo[1,5-a]pyridin-3-yl)azetidine-3-carboxylic acid] | < 5.00 | – | –
O=C(O)CCc1nc(-c2ccc(C(F)(F)F)cc2)c2ccccn12 [Cpd. No. 023, 3-(1-(4-(trifluoromethyl)phenyl)imidazo[1,5-a]pyridin-3-yl)propanoic acid] | > 6.00 | – | –
CC(=O)NCc1nc(-c2ccc(C(F)(F)F)cc2)n2cc(C(F)(F)F)ccc12 [Cpd. No. 010, N-((6-(trifluoromethyl)-3-(4-(trifluoromethyl)phenyl)imidazo[1,5-a]pyridin-1-yl)methyl)acetamide] | < 5.00 | – | –
O=C1CC(c2nc(-c3ccc(C(F)(F)F)cc3)c3ccccn23)=NO1 [Cpd. No. 030, 3-(1-(4-(trifluoromethyl)phenyl)imidazo[1,5-a]pyridin-3-yl)isoxazol-5(4H)-one] | 5.00 to 6.00 | – | –
O=C(O)C1CC(O)(c2nc(-c3ccc(C(F)(F)F)cc3)c3ccccn23)C1 (stereo not shown) [Cpd. No. 014, 3-hydroxy-3-(1-(4-(trifluoromethyl)phenyl)imidazo[1,5-a]pyridin-3-yl)cyclobutane-1-carboxylic acid] | < 5.00 | – | –
CNS(=O)(=O)/C=C/c1nc(-c2ccc(C(F)(F)F)cc2)c2ccccn12 [Cpd. No. 027, (E)-N-methyl-2-(1-(4-(trifluoromethyl)phenyl)imidazo[1,5-a]pyridin-3-yl)ethene-1-sulfonamide] | > 6.00 | > 6.00 | > 6.00
O=C(O)/C=C/c1nc(-c2ccc(C(F)(F)F)cc2)n2ccccc12 [Cpd. No. 007, (E)-3-(3-(4-(trifluoromethyl)phenyl)imidazo[1,5-a]pyridin-1-yl)acrylic acid] | > 6.00 | – | –
C=CC(=O)NCc1nc(C2CCC(F)(F)CC2)c2ccccn12 [Cpd. No. 026, N-((1-(4,4-difluorocyclohexyl)imidazo[1,5-a]pyridin-3-yl)methyl)acrylamide] | > 6.00 | > 6.00 | > 6.00
C=CC(=O)NCc1nc(-c2ccc(C(F)(F)F)cc2)c2ccccn12 [Cpd. No. 002, N-((1-(4-(trifluoromethyl)phenyl)imidazo[1,5-a]pyridin-3-yl)methyl)acrylamide] | > 6.00 | > 6.00 | > 6.00
